Biological target: T1, NPC1-like intracellular cholesterol transporter 1 (Homo sapiens, UniProt Q9UHC9)
T1 sequence (Q9UHC9 whole entry): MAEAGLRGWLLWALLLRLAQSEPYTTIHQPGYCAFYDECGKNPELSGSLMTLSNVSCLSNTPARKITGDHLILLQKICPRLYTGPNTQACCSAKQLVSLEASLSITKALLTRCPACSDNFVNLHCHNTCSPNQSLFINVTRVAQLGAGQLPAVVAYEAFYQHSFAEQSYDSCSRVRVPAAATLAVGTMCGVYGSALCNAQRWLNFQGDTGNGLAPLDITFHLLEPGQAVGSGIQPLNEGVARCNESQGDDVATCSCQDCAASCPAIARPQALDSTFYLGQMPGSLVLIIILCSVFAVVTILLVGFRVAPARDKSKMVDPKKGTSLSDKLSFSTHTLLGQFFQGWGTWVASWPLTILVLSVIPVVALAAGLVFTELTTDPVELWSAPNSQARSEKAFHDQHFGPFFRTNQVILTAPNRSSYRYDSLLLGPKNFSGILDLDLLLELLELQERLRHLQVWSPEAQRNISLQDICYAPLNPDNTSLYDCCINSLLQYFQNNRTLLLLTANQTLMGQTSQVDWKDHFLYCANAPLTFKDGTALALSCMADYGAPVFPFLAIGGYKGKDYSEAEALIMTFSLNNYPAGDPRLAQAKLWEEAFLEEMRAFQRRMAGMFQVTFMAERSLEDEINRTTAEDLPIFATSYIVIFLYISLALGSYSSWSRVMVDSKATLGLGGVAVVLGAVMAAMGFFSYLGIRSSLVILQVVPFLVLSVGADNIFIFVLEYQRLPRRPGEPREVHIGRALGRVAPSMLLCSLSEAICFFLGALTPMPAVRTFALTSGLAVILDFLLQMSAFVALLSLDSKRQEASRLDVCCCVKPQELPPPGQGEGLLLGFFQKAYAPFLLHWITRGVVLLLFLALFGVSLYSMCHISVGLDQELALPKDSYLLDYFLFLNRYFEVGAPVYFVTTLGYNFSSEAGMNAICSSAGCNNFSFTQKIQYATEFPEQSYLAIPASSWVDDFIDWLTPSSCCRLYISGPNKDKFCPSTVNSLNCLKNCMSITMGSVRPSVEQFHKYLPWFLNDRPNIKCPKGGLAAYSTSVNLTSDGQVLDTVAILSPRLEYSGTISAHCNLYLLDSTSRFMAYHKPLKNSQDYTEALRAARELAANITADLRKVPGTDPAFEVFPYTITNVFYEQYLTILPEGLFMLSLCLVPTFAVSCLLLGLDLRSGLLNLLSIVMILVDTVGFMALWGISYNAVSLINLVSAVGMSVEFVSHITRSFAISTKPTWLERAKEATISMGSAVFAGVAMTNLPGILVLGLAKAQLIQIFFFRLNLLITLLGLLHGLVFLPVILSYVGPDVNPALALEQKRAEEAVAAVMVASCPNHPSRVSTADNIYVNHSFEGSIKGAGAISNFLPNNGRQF
Assay: Displacement of [35S](2S,3S,4S,5R,6S)-6-(4-((2S,3R)-3-((S)-3-(4-fluorophenyl)-3-hydroxypropyl)-1-(4-(3-(methylsulfonamido)prop-1-ynyl)phenyl)-4-oxoazetidin-2-yl)phenoxy)-3,4,5-trihydroxytetrahydro-2H-pyran-2-carboxylic acid from human recombinant NPC1L1 expressed in HEK293 cells
Assay type: cell-based

Row | SMILES | IC50
1 | Cc1ccc(CCC2CCC(CNC(=O)c3cn[nH]c3)CN2C(=O)OCc2ccccc2)cc1 (stereo unspecified) | 81 µM
2 | CC(C)CNC(=O)CN1CN(c2ccccc2)C2(CCN(C(=O)c3ccc(C(C)(C)C)cc3)CC2)C1=O | 4.4 µM
3 | CC(C)(C)c1ccc(C(=O)NS(=O)(=O)N2CC3(CCN(C(=O)OCCc4ccccc4)CC3)c3ccccc32)cc1 | 79 µM
4 | Cn1c(N(Cc2ccc(OCCCC(=O)O)cc2)[C@H]2CC[C@H](C(C)(C)C)CC2)nc2cc(OC3CCCC3)ccc21 | 7.4 µM
5 | CC1(C(=O)O)COc2ccc(CCN(CCCCC3CCCCC3)C(=O)Nc3ccc(SC(F)(F)F)cc3)cc2O1 (stereo unspecified) | 4.6 µM
6 | O=C(c1cccc2ccccc12)N1CC(C(=O)N2CCC3(C=Cc4ccccc43)CC2)CC(c2ccccc2)C1 (stereo unspecified) | 0.39 µM

From ChEMBL document CHEMBL1136903, “Spiroimidazolidinone NPC1L1 inhibitors. 1: Discovery by 3D-similarity-based virtual screening” (Bioorg Med Chem Lett, 2009)
